What was measured:
[1] = target: T1, Acyl-CoA:cholesterol acyltransferase (Oryctolagus cuniculus, UniProt Q95214); assay: In vitro inhibition of ACAT by incubation with [1-14C]oleolyl-CoA and intestinal microsomes isolated from cholesterol-fed rabbits.; design: species or system Intestine
T1 sequence (Q95214 whole entry): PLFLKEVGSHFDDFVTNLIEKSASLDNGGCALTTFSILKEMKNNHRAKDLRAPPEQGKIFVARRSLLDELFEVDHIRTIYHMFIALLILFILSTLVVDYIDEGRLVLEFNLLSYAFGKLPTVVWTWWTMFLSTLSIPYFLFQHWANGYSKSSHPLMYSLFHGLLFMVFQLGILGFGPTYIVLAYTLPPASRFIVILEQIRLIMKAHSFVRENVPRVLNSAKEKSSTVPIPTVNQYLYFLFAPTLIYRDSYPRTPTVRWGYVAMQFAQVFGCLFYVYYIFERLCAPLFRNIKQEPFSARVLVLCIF

Rattus norvegicus [2] = assay: In vivo percent change in plasma cholesterol level was measured at a dose of 30 mg/Kg in rat and expressed as deltaTC; p < 0.01; type: functional
Rattus norvegicus [3] = assay: In vivo percent change in plasma cholesterol level was measured at a dose of 30 mg/Kg in rat and expressed as deltaTC; p < 0.05; type: functional
Rattus norvegicus [4] = assay: In vivo percent change in plasma cholesterol level was measured at a dose of 30 mg/Kg in rat and expressed as deltaTC; p < 0.001; type: functional
Rattus norvegicus [5] = assay: In vivo percent change in plasma cholesterol level was measured at a dose of 10 mg/Kg in rat and expressed as deltaTC; not significant; type: functional
Rattus norvegicus [6] = assay: In vivo percent change in plasma cholesterol level was measured at a dose of 30 mg/Kg in rat and expressed as deltaTC; not significant; type: functional
Rattus norvegicus [7] = assay: In vivo percent change in plasma cholesterol level was measured at a dose of 1 mg/Kg in rat and expressed as deltaTC; p < 0.05; type: functional
Rattus norvegicus [8] = assay: In vivo percent change in plasma cholesterol level was measured at a dose of 1 mg/Kg in rat and expressed as deltaTC; not significant; type: functional

| Structure (SMILES) | IC50 [1] | DeltaTC (Rattus norvegicus [2]) | further results |
| --- | --- | --- | --- |
| CCCCCCCCCCCCCCSC(=O)CS(=O)(=O)Nc1c(C(C)C)cccc1C(C)C | 36 nM | -23% |  |
| CC(C)c1cccc(C(C)C)c1OC(=O)[N-]S(=O)(=O)Oc1c(C(C)C)cccc1C(C)C.[Na+] | 5200 nM | -74% |  |
| CCCCCCCCSC(=O)CS(=O)(=O)Nc1c(C(C)C)cccc1C(C)C | 150 nM |  | DeltaTC (Rattus norvegicus [3]): -32% |
| CC(C)c1cccc(C(C)C)c1NC(=O)CS(=O)(=O)Nc1c(C(C)C)cccc1C(C)C | 350 nM |  | DeltaTC (Rattus norvegicus [4]): -51% |
| CCCCCCCCCCCCCCOC(=O)CS(=O)(=O)Nc1c(C(C)C)cccc1C(C)C |  | -45% |  |
| CC(C)c1cc(C(C)C)c(NS(=O)(=O)CC(=O)Oc2c(C(C)C)cccc2C(C)C)c(C(C)C)c1 | > 1000 nM | -29% |  |
| CC(C)c1cccc(C(C)C)c1NC(=O)CS(=O)(=O)Oc1c(C(C)C)cccc1C(C)C | 7 nM | -42% |  |
| CCCCCCCCCCSC(=O)CS(=O)(=O)Nc1c(C(C)C)cccc1C(C)C | 130 nM |  |  |
| CC(C)c1cccc(C(C)C)c1NS(=O)(=O)CC(=O)N(Cc1ccccc1)C(C)C | 150 nM | -31% |  |
| COP(=O)(Cc1c(C(C)C)cccc1C(C)C)NC(=O)Cc1c(C(C)C)cc(C(C)C)cc1C(C)C (stereo not drawn) | 1200 nM |  | DeltaTC (Rattus norvegicus [5]): -2% |
| CCCCCCCCCCOC(=O)CS(=O)(=O)Nc1c(C(C)C)cccc1C(C)C | > 1000 nM |  | DeltaTC (Rattus norvegicus [3]): -16% |
| CC(C)c1cc(C(C)C)c(OS(=O)(=O)CC(=O)Nc2c(C(C)C)cccc2C(C)C)c(C(C)C)c1 | 7 nM | -60% |  |
| CCCCCCCCCCCCNC(=O)CS(=O)(=O)Nc1c(C(C)C)cccc1C(C)C | 320 nM | -29% |  |
| COc1cc(OC)c(OC(=O)CS(=O)(=O)Nc2c(C(C)C)cccc2C(C)C)c(OC)c1 | > 1000 nM |  | DeltaTC (Rattus norvegicus [6]): -6% |
| CCCCCCCCCCCCOC(=O)CS(=O)(=O)Nc1c(C(C)C)cccc1C(C)C |  | -34% |  |
| COP(=O)(Cc1c(C(C)C)cc(C(C)C)cc1C(C)C)NC(=O)Cc1c(C(C)C)cccc1C(C)C (stereo not drawn) | 290 nM |  |  |
| CCCCCCCCCCCCCCCCCCSC(=O)CS(=O)(=O)Nc1c(C(C)C)cccc1C(C)C | > 5000 nM |  | DeltaTC (Rattus norvegicus [6]): -35% |
| CCCCCCOC(=O)CS(=O)(=O)Nc1c(C(C)C)cccc1C(C)C | > 1000 nM |  | DeltaTC (Rattus norvegicus [6]): -5% |

| Structure (SMILES) | IC50 [1] | DeltaTC (Rattus norvegicus [2]) | further results |
| --- | --- | --- | --- |
| CCCCCCCCN(CCCCCCCC)C(=O)CS(=O)(=O)Nc1c(C(C)C)cccc1C(C)C |  |  | DeltaTC (Rattus norvegicus [6]): -19% |
| CCCCCCCCCCCCSC(=O)CS(=O)(=O)Nc1c(C(C)C)cccc1C(C)C | 73 nM | -71% |  |
| CC(C)c1cc(C(C)C)c(CC(=O)NS(=O)(=O)Oc2c(C(C)C)cccc2C(C)C)c(C(C)C)c1 [AVASIMIBE] | 12000 nM | -73% |  |
| CC(C)c1cc(C(C)C)c(CC(=O)NP(=O)(Oc2c(C(C)C)cccc2C(C)C)c2ccccc2)c(C(C)C)c1 (stereo not drawn) | 2500 nM |  | DeltaTC (Rattus norvegicus [7]): -25% |
| CCCCCCSC(=O)CS(=O)(=O)Nc1c(C(C)C)cccc1C(C)C | 1000 nM |  |  |
| CCCCCCCCCCCCNC(=O)CS(=O)(=O)Oc1c(C(C)C)cccc1C(C)C | 3000 nM |  | DeltaTC (Rattus norvegicus [6]): -3% |
| CC(C)c1cccc(C(C)C)c1OS(=O)(=O)CC(=O)NC(c1ccccc1)c1ccccc1 | 1800 nM | -43% |  |
| CC(C)c1cc(C(C)C)c(OC(=O)CS(=O)(=O)Nc2c(C(C)C)cccc2C(C)C)c(C(C)C)c1 | 2800 nM |  | DeltaTC (Rattus norvegicus [6]): -19% |
| CC(C)c1cccc(C(C)C)c1NS(=O)(=O)CC(=O)Sc1c(C(C)C)cccc1C(C)C | > 50000 nM |  | DeltaTC (Rattus norvegicus [6]): -16% |
| CC(C)c1cccc(C(C)C)c1NS(=O)(=O)CC(=O)Oc1c(C(C)C)cccc1C(C)C | > 1000 nM |  |  |
| CCCCCCCCCCCCC(C)OC(=O)CS(=O)(=O)Nc1c(C(C)C)cccc1C(C)C (stereo not drawn) | 21 nM |  | DeltaTC (Rattus norvegicus [4]): -39% |
| COP(=O)(Cc1c(C(C)C)cc(C(C)C)cc1C(C)C)NC(=O)Cc1c(C(C)C)cc(C(C)C)cc1C(C)C (stereo not drawn) | 740 nM |  | DeltaTC (Rattus norvegicus [5]): -17% |
| CCOC(=O)CS(=O)(=O)Nc1c(C(C)C)cccc1C(C)C | > 1000 nM |  | DeltaTC (Rattus norvegicus [6]): 2% |
| CCCCCCNC(=O)CS(=O)(=O)Nc1c(C(C)C)cccc1C(C)C | > 5000 nM |  | DeltaTC (Rattus norvegicus [3]): -16% |
| CCCCCCCCOC(=O)CS(=O)(=O)Nc1c(C(C)C)cccc1C(C)C | > 1000 nM |  | DeltaTC (Rattus norvegicus [6]): -4% |
| COP(=O)(NC(=O)Cc1c(C(C)C)cc(C(C)C)cc1C(C)C)Oc1c(C(C)C)cccc1C(C)C (stereo not drawn) | 4800 nM |  |  |
| COP(=O)(NC(=O)Cc1c(C(C)C)cc(C(C)C)cc1C(C)C)Oc1c(C(C)C)cc(Cl)cc1C(C)C (stereo not drawn) | > 5000 nM |  | DeltaTC (Rattus norvegicus [8]): -12% |
| CC(C)c1cccc(C(C)C)c1NS(=O)(=O)CC(=O)NCC1(c2ccccc2)CCCC1 | > 1000 nM |  |  |
